Test results as given in patent publication US12319652B2, “Salts and solid forms of (R)-1-(5-methoxy-1H-indol-1-yl)-N,N-dimethylpropan-2-amine” (priority 2021, dated 2025).

Key:
[1] = Solubility determinations in SIF buffers (FaSSIF, FeSSIF, FaSSGF); assay type: physicochemical
Experimental: At this stage ca. 1 g of each front-runner salt form was prepared. Salt forms that offered significant solubility and stability advantages over the non-ionized API were prioritized. […] Scale Up
The solubility of the salts below was determined in FaSSIF, FeSSIF and FaSSGF by reference to the calibration curve of amorphous compound 1.
Separate portions of compound 1 were weighed out into aluminum boats and were charged to the relevant volumetric flasks. Solutions were made to volume with 1 to 1 (v/v) acetonitrile/purified water to give calibrants of known API concentrations and analyzed by HPLC, suitable to determine the concentration of compound 1 free base in the SIF buffer solubility study.
Each sample (150 mg) was suspended in the relevant SIF buffer (5.0 ml), to give a concentration of 30 mg/ml and maintain at 37° C. for 24 h. The pH was adjusted using 1 M HCl or 1 M NaOH, to ensure that the suspension remains in range.
Sample (1 ml) of the well-stirred representative suspensions was obtained at 1 h, 3 h, 6 h and 24 h and the pH was recorded. The pH of the bulk suspension was re-adjusted when necessary. The obtained sample from each vial was centrifuged, and the supernatant was analysed by HPLC (note, the analyte was diluted, when outside of the calibration range); XRPD analysis was performed on the wet sample pellet for evidence of form change, as well as on the oven-dried pellet (undervacuum at 40° C.).

[2] = Dynamic vapor sorption (DVS); assay type: physicochemical
Experimental: There are two main methods to use, one is by time where the equilibration is given by a fixed time, i.e., 1 hour per step and is appropriate for an unknown phase. The second, is by mass per time unit (dm/dt) of 0.002%/min; that is when the difference in weight is less than 0.002%, the instrument moves onto the next step. For unknown hygroscopicity, the method by time is indicated because it gives an idea of water affinity without wasting much time. Ideally the analyses are repeated using the mass equilibration method to confirm. By experience for hygroscopic samples, the analysis can continue for days. For non-hygroscopic samples the difference between the two methods may not be significant.
Consequently, amorphous batch 1 was analyzed by the fixed time method and once compound 1 fumarate crystalline polymorphic Form A was generated the analyses was repeated as mass per unit time equilibrated @dm/dt ([…]) and is given below (refer to FIG. 12).
(§1) The moisture sorption properties of the feed API were analysed by DVS Intrinsic instrument (Surface Measurement System). Approximately 20 to 50 mg of API was weighed onto an aluminium pan and loaded into the instrument equilibrated at 25° C. The sample was equilibrated under a dry atmosphere (0% relative humidity) for 60 minutes, before increasing the humidity from 0% to 30% at 5%4 step increment and from 30% to 90% at 10% step increment. A desorption cycle was also applied from 90% to 30% (10% step decrement) and from 30% to 0% (5% step decrement). A rate of change in mass per time unit (dm/dt) of 0.002%/min was set as the equilibrium parameter. Kinetic and isotherm graphs were calculated.
Specimens were equilibrated at 0% RH for 60 min, prior to DVS analyses (stepped increment % RH up to 90% RH and stepped decrement % RH down to 0% RH.
as §1, with “5%” for “5%4”

[3] = assay type: physicochemical; conditions: 40° C./75% RH, 10-day time point
Experimental: Equilibrium Humidity Evaluation (40° C./75% RH for 10 Days)
100 mg portions of compound 1 salts (for inputs see table below) were placed in the relevant open vials. The powders were finely divided and distributed evenly over the base of the vial, such that equal material coverage across the panel was observed. These samples were then maintained 40°C. under 75% RH. The samples were sub-sampled at intervals of 5 and 10 days and analysed by ^1H NMR, HPLC, XRPD, DSC, TGA and PLM, for evidence of phase change or chemical degradation (FIG. 269-297).

With `COc1ccc2c(ccn2C[C@@H](C)N(C)C)c1.O=C(O)c1ccccc1` [Compound 1.Benzoate] the “HPLC peak RRT 1.00 (Compound 1)” value ([1]; input salt before FaSSGF) was 99.64, the “HPLC peak RRT 1.09” value ([1]; input salt before FaSSGF) was 0.03 and the “HPLC peak RRT 1.17” value ([1]; input salt before FaSSGF) was 0.03. For the same molecule, the “HPLC peak RRT 1.18” value ([1]; input salt before FaSSGF) was 0.10, the “HPLC peak RRT 1.19” value ([1]; input salt before FaSSGF) was 0.02 and the “HPLC peak RRT 1.24” value ([1]; input salt before FaSSGF) was 0.06. The “HPLC peak RRT 1.28” value ([1]; input salt before FaSSGF) was 0.01, the “HPLC peak RRT 1.33” value ([1]; input salt before FaSSGF) was 0.10 and the “HPLC peak RRT 0.90” value ([1]; t = 1 h in FaSSGF) was 0.07. The “HPLC peak RRT 0.92” value ([1]; t = 1 h in FaSSGF) was 0.05, the “HPLC peak RRT 1.00 (Compound 1)” value ([1]; t = 1 h in FaSSGF) was 99.28 and the “HPLC peak RRT 1.07” value ([1]; t = 1 h in FaSSGF) was 0.04. For the same molecule, the “HPLC peak RRT 1.09” value ([1]; t = 1 h in FaSSGF) was 0.06, the “HPLC peak RRT 1.17” value ([1]; t = 1 h in FaSSGF) was 0.04 and the “HPLC peak RRT 1.19” value ([1]; t = 1 h in FaSSGF) was 0.15. For the same molecule, the “HPLC peak RRT 1.27” value ([1]; t = 1 h in FaSSGF) was 0.11, the “HPLC peak RRT 1.28” value ([1]; t = 1 h in FaSSGF) was 0.05 and the “HPLC peak RRT 1.33” value ([1]; t = 1 h in FaSSGF) was 0.15. For the same molecule, the “HPLC peak RRT 0.97” value ([1]; t = 3 h in FaSSGF) was 0.04, the “HPLC peak RRT 1.00 (Compound 1)” value ([1]; t = 3 h in FaSSGF) was 99.62 and the “HPLC peak RRT 1.07” value ([1]; t = 3 h in FaSSGF) was 0.03. The “HPLC peak RRT 1.17” value ([1]; t = 3 h in FaSSGF) was 0.15, the “HPLC peak RRT 1.33” value ([1]; t = 3 h in FaSSGF) was 0.16 and the “HPLC peak RRT 1.00 (Compound 1)” value ([1]; t = 6 h in FaSSGF) was 99.61. For the same molecule, the “HPLC peak RRT 1.17” value ([1]; t = 6 h in FaSSGF) was 0.12, the “HPLC peak RRT 1.24” value ([1]; t = 6 h in FaSSGF) was 0.08 and the “HPLC peak RRT 1.25” value ([1]; t = 6 h in FaSSGF) was 0.04. For the same molecule, the “HPLC peak RRT 1.32” value ([1]; t = 6 h in FaSSGF) was 0.06, the “HPLC peak RRT 1.33” value ([1]; t = 6 h in FaSSGF) was 0.09 and the “HPLC peak RRT 1.00 (Compound 1)” value ([1]; t = 24 h in FaSSGF) was 99.73. For the same molecule, the “HPLC peak RRT 1.17” value ([1]; t = 24 h in FaSSGF) was 0.15, the “HPLC peak RRT 1.32” value ([1]; t = 24 h in FaSSGF) was 0.07 and the “HPLC peak RRT 1.33” value ([1]; t = 24 h in FaSSGF) was 0.06.
In the case of `COc1ccc2c(ccn2C[C@@H](C)N(C)C)c1.O=C(O)/C=C\C(=O)O` [compound 1 maleate], the DVS isotherm uptake [2] is reported as “ca. 3.5 % w/w”, the “DVS 0 to 90 to 0% RH (dm/dt <0.002%)” value ([2]; 0.0% RH, desorption) is reported as −0.07% and the “DVS 0 to 90 to 0% RH (dm/dt <0.002%)” value ([2]; 0.0% RH, sorption) is reported as “DVS 0 to 90 to 0% RH (dm/dt <0.002%): 0.0 (0.00%), 5.0”. The “DVS isotherm type / hygroscopicity” value ([2]; 0 to 90 to 0% RH) was “hygroscopic”, the “DVS 0 to 90 to 0% RH (dm/dt <0.002%)” value ([2]; 5.0% RH, desorption) was −0.03% and the “DVS 0 to 90 to 0% RH (dm/dt <0.002%)” value ([2]; 5.0% RH, sorption) was 0.02%. For the same molecule, the “DVS 0 to 90 to 0% RH (dm/dt <0.002%)” value ([2]; 10.0% RH, desorption) was 0.03%, the “DVS 0 to 90 to 0% RH (dm/dt <0.002%)” value ([2]; 10.0% RH, sorption) was 0.05% and the “DVS 0 to 90 to 0% RH (dm/dt <0.002%)” value ([2]; 15.0% RH, desorption) was 0.09%. The “DVS 0 to 90 to 0% RH (dm/dt <0.002%)” value ([2]; 15.0% RH, sorption) was 0.08%, the “DVS 0 to 90 to 0% RH (dm/dt <0.002%)” value ([2]; 20.0% RH, desorption) was 0.15% and the “DVS 0 to 90 to 0% RH (dm/dt <0.002%)” value ([2]; 20.0% RH, sorption) was 0.11%. The “DVS 0 to 90 to 0% RH (dm/dt <0.002%)” value ([2]; 25.0% RH, desorption) was 0.22%, the “DVS 0 to 90 to 0% RH (dm/dt <0.002%)” value ([2]; 25.0% RH, sorption) was 0.14% and the “DVS 0 to 90 to 0% RH (dm/dt <0.002%)” value ([2]; 30.0% RH, desorption) was 0.30%. The “DVS 0 to 90 to 0% RH (dm/dt <0.002%)” value ([2]; 30.0% RH, sorption) was 0.18%, the “DVS 0 to 90 to 0% RH (dm/dt <0.002%)” value ([2]; 40.0% RH, desorption) was 0.48% and the “DVS 0 to 90 to 0% RH (dm/dt <0.002%)” value ([2]; 40.0% RH, sorption) was 0.26%. The “DVS 0 to 90 to 0% RH (dm/dt <0.002%)” value ([2]; 50.0% RH, desorption) was 0.70%, the “DVS 0 to 90 to 0% RH (dm/dt <0.002%)” value ([2]; 50.0% RH, sorption) was 0.42% and the “DVS 0 to 90 to 0% RH (dm/dt <0.002%)” value ([2]; 60.0% RH, desorption) was 1.00%. The “DVS 0 to 90 to 0% RH (dm/dt <0.002%)” value ([2]; 60.0% RH, sorption) was 0.86%, the “DVS 0 to 90 to 0% RH (dm/dt <0.002%)” value ([2]; 70.0% RH, desorption) was 1.40% and the “DVS 0 to 90 to 0% RH (dm/dt <0.002%)” value ([2]; 70.0% RH, sorption) was 1.38%. For the same molecule, the “DVS 0 to 90 to 0% RH (dm/dt <0.002%)” value ([2]; 80.0% RH, desorption) was 2.03%, the “DVS 0 to 90 to 0% RH (dm/dt <0.002%)” value ([2]; 80.0% RH, sorption) was 2.00% and the “DVS 0 to 90 to 0% RH (dm/dt <0.002%)” value ([2]; 90.0% RH, desorption) was 3.44%. The “DVS 0 to 90 to 0% RH (dm/dt <0.002%)” value ([2]; 90.0% RH, sorption) was 3.44%, the “DVS desorption behaviour (hysteresis)” value ([2]; during desorption) was “small hysteresis” and the “Change of purity profile / CP” value [3] was “reduction in CP”. For the same molecule, the “Solubility in SIF buffers” value ([1]; FaSSIF, FeSSIF and FaSSGF, 37° C., 24 h, concentration tested 30 mg/ml) was “freely soluble”.
